The target in one experiment is T1, GLP (Homo sapiens, UniProt Q9H9B1).
T1 sequence (Q9H9B1 1-1298): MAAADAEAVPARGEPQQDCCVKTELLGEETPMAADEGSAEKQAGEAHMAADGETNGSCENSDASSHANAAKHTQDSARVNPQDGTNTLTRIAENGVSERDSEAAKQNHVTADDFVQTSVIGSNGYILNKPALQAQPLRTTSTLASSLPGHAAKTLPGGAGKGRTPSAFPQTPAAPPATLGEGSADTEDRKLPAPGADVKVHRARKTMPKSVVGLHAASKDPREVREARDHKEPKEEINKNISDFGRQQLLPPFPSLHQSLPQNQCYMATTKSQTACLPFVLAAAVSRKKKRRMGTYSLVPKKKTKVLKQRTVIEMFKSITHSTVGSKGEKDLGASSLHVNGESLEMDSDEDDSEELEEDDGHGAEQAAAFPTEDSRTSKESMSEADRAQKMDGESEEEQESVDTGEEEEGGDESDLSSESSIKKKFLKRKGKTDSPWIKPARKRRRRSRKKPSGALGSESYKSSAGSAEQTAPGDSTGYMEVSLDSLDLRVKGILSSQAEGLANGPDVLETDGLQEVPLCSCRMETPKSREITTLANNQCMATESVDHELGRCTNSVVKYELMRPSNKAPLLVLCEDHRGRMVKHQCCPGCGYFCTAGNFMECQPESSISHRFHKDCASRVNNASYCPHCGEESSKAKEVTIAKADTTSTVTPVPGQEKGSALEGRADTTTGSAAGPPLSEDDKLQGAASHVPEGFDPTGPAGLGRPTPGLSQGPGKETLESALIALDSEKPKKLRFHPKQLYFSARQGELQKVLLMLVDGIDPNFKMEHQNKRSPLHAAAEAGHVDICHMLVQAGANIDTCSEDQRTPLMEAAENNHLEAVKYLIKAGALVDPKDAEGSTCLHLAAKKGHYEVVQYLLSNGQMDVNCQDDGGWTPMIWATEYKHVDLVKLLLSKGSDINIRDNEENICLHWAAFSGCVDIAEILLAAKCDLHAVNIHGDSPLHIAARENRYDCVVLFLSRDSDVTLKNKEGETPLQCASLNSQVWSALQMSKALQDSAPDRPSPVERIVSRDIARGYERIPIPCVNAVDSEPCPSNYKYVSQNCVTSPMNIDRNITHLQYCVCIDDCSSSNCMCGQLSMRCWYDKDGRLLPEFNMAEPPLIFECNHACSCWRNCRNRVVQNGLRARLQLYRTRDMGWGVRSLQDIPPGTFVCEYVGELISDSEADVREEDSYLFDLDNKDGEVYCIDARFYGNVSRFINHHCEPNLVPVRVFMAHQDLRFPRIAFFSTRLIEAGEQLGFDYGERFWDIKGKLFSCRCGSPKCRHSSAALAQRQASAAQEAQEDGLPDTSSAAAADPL
Description: Methyltransferase inhibition panel: GLP. The class given is biochemical. The protocol: (§1) The ability of ETP69 to inhibit methyltransferases was tested.

A further experiment deals with NSD1 (Homo sapiens, UniProt Q96L73). Description: Methyltransferase inhibition panel: NSD1. The class given is biochemical. As to the method:
as §1

The target of a further experiment is DNMT3b (Homo sapiens, UniProt Q9UBC3). Nature of the experiment: Methyltransferase inhibition panel: DNMT3b. It counts as biochemical. As to the method:
as §1

In experiment [1] the test system is ionized calcium-binding adaptor molecule 1 (Iba-1). Description: Iba-1 immunoreactivity (microgliosis) in cerebral cortex. It counts as in vivo. Particulars: neurodegenerative mice. The protocol:
The effects of ETP69 on cerebral H3K9me3 levels was tested in old mice, in both a neurodegenerative model and WT siblings. The levels of brain H3K9me3 at days 4 (short-term) and 15 (long-term) following i.p. ETP69 injection (S regimen cohorts) were measured. […] These findings indicate that a single dose of ETP69 is sufficient to sustainably reduce H3K9me3 in the brains of old WT and neurodegenerative mice. Consistent with the observations in 18-month-old mice, ETP69 mitigated neuroinflammation, including by reduced ionized calcium-binding adaptor molecule 1 (Iba-1)^+ microgliosis in neurodegenerative mice (40%, p=0.0021; FIG. 16D).

A further experiment concerns the target T2, SET8 (Homo sapiens, UniProt Q9NQR1).
T2 sequence (Q9NQR1 1-393): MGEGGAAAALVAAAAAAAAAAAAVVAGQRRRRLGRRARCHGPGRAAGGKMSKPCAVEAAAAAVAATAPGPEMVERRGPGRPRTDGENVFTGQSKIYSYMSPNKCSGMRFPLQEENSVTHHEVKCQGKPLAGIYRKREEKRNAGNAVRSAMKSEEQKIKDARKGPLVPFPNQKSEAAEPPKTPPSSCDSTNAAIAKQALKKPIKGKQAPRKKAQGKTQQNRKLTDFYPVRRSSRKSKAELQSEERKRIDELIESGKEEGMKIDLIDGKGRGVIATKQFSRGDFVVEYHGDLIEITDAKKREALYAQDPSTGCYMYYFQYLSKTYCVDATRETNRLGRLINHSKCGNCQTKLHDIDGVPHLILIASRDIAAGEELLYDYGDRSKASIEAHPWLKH
Description: Methyltransferase inhibition panel: SET8. It counts as biochemical. The protocol:
as §1

The target in a further experiment is DOT1L (Homo sapiens, UniProt Q8TEK3). Nature of the experiment: Methyltransferase inhibition panel: DOT1L. It counts as biochemical. The protocol:
as §1

The target of a further experiment is PRMT4 (Homo sapiens, UniProt Q86X55). Description: Methyltransferase inhibition panel: PRMT4. The class given is biochemical. The protocol: as §1
Sequence of PRMT4 (Q86X55 whole entry): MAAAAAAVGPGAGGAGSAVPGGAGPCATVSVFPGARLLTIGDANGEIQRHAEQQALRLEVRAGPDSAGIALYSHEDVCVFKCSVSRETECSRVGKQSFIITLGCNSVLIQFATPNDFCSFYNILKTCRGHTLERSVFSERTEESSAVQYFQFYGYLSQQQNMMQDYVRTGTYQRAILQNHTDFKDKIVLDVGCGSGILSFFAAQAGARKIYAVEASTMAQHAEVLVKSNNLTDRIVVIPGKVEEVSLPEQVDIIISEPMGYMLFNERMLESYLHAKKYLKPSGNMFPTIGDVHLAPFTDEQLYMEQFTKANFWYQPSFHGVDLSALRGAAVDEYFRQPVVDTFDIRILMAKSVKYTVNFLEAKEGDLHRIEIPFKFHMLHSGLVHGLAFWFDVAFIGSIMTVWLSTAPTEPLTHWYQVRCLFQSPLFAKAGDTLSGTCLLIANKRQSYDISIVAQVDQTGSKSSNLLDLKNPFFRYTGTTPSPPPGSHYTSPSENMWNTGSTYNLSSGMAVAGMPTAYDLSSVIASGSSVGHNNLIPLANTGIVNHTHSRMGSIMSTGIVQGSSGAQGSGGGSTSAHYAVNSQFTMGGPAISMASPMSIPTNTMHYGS
For another experiment, the target named is METTL21A (Homo sapiens, UniProt Q8WXB1). Nature of the experiment: Methyltransferase inhibition panel: METTL21A. It counts as biochemical. As to the method:
as §1

The mark [2] stands for this setting: read-out: Enzyme % Activity (relative to DMSO controls) Data 1.
Where [3] appears, read: read-out: Enzyme % Activity (relative to DMSO controls) Data 2.
[4] abbreviates: NT1721 20 μM, substrate Nucleosomes 0.05 mg/mL.

Where two headings read alike, the source gives them in different places.

Sequence of NSD1 (Q96L73 whole entry): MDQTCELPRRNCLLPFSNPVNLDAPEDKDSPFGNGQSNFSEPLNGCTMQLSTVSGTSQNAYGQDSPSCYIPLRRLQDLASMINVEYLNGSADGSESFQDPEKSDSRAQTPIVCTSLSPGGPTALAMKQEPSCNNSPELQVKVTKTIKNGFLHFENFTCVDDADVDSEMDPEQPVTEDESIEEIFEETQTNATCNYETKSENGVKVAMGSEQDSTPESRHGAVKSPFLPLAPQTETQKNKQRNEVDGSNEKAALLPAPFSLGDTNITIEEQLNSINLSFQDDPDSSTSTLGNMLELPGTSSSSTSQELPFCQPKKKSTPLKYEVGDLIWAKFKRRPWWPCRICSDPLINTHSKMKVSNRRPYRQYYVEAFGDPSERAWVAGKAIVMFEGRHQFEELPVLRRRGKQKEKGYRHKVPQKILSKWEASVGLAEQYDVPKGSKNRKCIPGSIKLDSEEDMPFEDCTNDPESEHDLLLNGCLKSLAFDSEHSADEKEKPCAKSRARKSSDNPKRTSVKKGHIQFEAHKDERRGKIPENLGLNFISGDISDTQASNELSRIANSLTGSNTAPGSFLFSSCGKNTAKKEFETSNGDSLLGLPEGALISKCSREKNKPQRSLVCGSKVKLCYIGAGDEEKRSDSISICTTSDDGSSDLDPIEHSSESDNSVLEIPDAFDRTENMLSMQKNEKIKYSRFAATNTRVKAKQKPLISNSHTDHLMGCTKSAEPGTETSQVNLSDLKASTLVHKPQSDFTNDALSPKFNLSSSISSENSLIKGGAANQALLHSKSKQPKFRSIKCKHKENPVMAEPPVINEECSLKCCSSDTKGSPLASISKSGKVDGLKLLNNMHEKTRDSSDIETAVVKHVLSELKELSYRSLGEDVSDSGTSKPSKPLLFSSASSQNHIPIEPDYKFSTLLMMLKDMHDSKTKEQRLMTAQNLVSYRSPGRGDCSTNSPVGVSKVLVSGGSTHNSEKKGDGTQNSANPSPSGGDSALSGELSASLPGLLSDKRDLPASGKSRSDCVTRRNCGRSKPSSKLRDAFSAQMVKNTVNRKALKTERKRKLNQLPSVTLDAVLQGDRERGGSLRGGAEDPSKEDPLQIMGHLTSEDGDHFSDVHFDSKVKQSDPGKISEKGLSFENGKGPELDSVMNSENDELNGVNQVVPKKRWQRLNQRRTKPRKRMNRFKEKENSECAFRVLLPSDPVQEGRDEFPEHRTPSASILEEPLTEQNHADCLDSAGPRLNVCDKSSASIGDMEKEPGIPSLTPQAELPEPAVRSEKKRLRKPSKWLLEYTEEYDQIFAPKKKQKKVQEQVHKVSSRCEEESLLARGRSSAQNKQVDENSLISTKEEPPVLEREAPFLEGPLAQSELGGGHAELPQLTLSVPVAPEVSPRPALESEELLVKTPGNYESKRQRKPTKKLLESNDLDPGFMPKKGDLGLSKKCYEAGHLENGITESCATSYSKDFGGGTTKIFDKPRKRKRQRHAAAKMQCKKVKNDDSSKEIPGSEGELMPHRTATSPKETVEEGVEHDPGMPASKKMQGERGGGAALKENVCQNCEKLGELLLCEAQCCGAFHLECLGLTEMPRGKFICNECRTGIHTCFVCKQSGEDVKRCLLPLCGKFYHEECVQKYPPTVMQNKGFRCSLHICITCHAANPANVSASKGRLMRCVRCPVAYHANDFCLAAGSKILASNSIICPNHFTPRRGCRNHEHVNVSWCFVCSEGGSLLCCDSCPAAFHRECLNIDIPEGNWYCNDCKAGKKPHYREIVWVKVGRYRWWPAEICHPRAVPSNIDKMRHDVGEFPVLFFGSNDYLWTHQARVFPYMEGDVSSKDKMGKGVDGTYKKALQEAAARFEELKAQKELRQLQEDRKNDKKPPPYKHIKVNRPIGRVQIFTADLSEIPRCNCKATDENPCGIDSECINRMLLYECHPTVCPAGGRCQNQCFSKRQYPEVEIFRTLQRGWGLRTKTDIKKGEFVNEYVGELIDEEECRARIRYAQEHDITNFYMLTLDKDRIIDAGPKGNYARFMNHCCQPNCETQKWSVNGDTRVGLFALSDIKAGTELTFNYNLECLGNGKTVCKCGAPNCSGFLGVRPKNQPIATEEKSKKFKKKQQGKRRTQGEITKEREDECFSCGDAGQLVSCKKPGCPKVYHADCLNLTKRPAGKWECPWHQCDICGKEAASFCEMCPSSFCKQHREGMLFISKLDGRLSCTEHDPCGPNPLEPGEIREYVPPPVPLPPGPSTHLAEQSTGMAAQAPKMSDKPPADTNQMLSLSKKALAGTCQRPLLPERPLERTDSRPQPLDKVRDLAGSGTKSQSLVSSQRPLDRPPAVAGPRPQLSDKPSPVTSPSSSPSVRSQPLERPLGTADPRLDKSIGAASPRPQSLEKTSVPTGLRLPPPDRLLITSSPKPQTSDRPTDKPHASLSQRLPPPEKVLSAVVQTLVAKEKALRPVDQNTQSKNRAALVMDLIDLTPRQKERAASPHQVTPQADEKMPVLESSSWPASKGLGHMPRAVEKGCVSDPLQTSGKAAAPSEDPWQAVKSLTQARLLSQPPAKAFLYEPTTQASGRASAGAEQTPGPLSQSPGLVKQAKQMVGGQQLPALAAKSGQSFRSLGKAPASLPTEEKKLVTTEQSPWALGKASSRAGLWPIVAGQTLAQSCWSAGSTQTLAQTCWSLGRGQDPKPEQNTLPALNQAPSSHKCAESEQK
Sequence of METTL21A (Q8WXB1 whole entry): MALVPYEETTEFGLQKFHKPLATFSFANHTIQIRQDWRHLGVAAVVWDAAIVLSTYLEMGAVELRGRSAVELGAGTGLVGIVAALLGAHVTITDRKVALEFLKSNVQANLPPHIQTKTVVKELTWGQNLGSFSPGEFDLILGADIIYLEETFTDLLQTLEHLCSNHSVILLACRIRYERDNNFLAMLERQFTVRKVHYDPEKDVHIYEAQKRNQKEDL
Sequence of DOT1L (Q8TEK3 whole entry): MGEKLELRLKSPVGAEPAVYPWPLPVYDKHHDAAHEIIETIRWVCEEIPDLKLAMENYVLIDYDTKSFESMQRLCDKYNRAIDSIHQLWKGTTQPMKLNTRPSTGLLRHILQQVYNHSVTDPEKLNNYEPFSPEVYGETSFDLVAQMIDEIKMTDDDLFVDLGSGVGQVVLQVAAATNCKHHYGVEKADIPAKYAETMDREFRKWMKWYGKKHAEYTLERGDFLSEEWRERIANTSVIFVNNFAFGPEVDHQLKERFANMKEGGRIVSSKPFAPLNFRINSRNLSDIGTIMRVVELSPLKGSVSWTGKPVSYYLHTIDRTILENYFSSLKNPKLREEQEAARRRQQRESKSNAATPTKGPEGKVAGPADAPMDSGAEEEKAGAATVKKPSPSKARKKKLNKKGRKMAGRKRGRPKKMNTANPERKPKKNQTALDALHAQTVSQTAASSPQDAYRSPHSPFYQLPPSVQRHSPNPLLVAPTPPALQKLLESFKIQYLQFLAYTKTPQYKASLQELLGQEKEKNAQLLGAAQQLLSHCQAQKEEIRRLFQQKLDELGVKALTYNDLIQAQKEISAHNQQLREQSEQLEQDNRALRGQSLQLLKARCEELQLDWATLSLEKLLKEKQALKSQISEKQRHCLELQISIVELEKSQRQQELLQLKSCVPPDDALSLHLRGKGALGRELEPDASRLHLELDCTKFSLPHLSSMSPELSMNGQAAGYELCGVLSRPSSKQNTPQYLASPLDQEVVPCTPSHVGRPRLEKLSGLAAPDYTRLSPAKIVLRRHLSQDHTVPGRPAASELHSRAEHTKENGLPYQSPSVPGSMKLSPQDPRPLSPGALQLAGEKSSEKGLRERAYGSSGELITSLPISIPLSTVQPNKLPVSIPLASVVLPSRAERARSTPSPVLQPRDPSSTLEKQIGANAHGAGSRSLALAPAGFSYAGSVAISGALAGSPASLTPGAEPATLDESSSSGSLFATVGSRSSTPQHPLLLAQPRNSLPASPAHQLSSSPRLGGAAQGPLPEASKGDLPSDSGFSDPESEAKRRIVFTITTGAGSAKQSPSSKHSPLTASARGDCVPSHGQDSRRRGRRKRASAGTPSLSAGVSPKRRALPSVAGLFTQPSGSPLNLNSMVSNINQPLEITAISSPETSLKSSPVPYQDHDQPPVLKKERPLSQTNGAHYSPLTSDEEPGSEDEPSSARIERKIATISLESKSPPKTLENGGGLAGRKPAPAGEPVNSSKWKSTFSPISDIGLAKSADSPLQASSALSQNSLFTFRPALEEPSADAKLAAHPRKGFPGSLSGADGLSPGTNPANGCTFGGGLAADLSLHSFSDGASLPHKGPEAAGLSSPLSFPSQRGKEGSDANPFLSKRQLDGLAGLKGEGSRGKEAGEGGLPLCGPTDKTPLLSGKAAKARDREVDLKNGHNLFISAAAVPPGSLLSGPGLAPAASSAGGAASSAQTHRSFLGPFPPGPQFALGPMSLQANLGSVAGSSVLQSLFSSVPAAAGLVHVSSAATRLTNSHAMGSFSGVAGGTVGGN

With `CN1C(=O)[C@@]23C[C@](C)(C#N)[C@H](c4ccc5c(c4)OCO5)N2C(=O)[C@]1(C)SS3` (racemic) [ETP69, Rac-(3S,6S,7S,8aS)-6-(benzo[d][1,3]dioxol-5-yl)-2,3,7-trimethyl-1,4-dioxohexahydro-6H-3,8a-epidithiopyrrolo[1,2-a]pyrazine-7-carbonitrile], the remaining activity at 2.5 µM at GLP (setting [2]) was found to be 91.4%; on GLP (setting [3]), 94.2%. Moreover, the “Enzyme % Activity (relative to DMSO controls) Data 1” value at NSD1 (setting [4]) was determined as 34.29%. On NSD1 (setting [4]), the “Enzyme % Activity (relative to DMSO controls) Data 2” value is 36.14%. In addition, the “inhibition relative to DMSO controls” value at NSD1 (summary of Table 1) was “at least 7500”. The remaining activity at 20 µM at DNMT3b (setting [2]) turned out to be 84.8%; at DNMT3b (setting [3]), 80.9%; at SET8 (setting [2]), 92.3%; at SET8 (setting [3]) it was 92.6%; at DOT1L (setting [2]), 104%; on DOT1L (setting [3]), 98.5%. Also, the remaining activity at 20 µM on PRMT4 (setting [2]) came out at 115%; at PRMT4 (setting [3]), 114%; on METTL21A (setting [2]), 78.6%; at METTL21A (setting [3]), 78.5%. Besides, the “reduction of Iba-1+ microgliosis” value in experiment [1] is listed as 40%.

The values are drawn from patent US20260207585A1, “METHODS AND COMPOSITIONS FOR THE TREATMENT OF PARKINSON'S DISEASE, HUNTINGTON'S DISEASE, AMYOTROPHIC LATERAL SCLEROSIS, AND LEARNING DISORDERS” (Cedars-Sinai Medical Center, priority 2022, published 2026).
